Reference: patent publication US20040208782A1, “Composition and process for chemical and thermal disinfection” (priority 2003, published 2004)
Values joined by “and” are separate entries in the source; they are usually repeats but may differ in a detail not shown here. Identical values can stand only once.

Experiments:
[1] = Solubility in water; format: physicochemical
[2] = Stoppered cylinder foam test (Test 3); format: physicochemical; conditions: 0.1% by weight aqueous solution, room temperature
Description: The test is used for qualitative assessment of the foaming behaviour of solutions.
The solution to be tested is introduced, avoiding foaming as far as possible, up to the 30 ml mark in a 100 ml measuring cylinder (graduated). It is advisable to hold the cylinder at an angle and allow the solution to run slowly down the wall of the mixing cylinder. The stopper is then inserted.
If foam has nevertheless formed when introducing the solution, the test is not carried out until the foam has completely disappeared. The stoppered cylinder is shaken vigorously 10×, and the stopclock is started. The total volume of solution and foam is then read off in ml after previously specified times.
Test 3 at Room Temperature

[3] = test system: Mycobacterium terrae (ATCC15755); experiment: Mycobacterium terrae quantitative suspension test (Test 2), reduction factors; format: cell-based; conditions: for activity for Mycobacterium terrae (in words): 0.1% by weight; for reduction factor: Example 4, 0.1% by weight
[4] = test system: bacteria, fungi and mycobacteria; experiment: Quantitative suspension test, overall spectrum of activity (result statements); format: cell-based; conditions: 0.1% by weight

Compound	solubility in water [1]	foaming behaviour (in words) [2]	activity for Mycobacterium terrae (in words) ([3]; 50° C.)	activity for Mycobacterium terrae (in words) ([3]; room temperature, only at 60 minutes in 30% by weight ethanol solution)	activity (in words) ([3]; 0.1% strength or 0.05% strength aqueous solution, elevated temperature (e.g. 60° C.))	reduction factor ([3]; 50° C., action for 15′)	reduction factor ([3]; 50° C., action for 30′)	reduction factor ([3]; 50° C., action for 60′)	activity on Mycobacterium terrae (in words) ([3]; above room temperature, alkaline range)	antimicrobial activity (in words) ([4]; 50° C., gram-positive and gram-negative bacteria, yeasts and mycobacteria)	antimicrobial activity (in words) ([4]; low temperature)
CCCCCCCCOCC(O)CO (stereo not shown) [1-(n-octyl)glycerol ether]	< 0.2 % by weight and > 0.1 % by weight	pronounced foaming									
CCCCC(CC)COCC(O)CO (stereo not shown) [SC 50, 1-(2-Ethylhexyl)glycerol ether]	0.18 % by weight	virtually no foam	active	good activity	excellent activity	4.80	4.66	5.52	excellent activity	broad activity	virtually no antimicrobial activity
